From paper PMC3664642, “A Peptide against Soluble Guanylyl Cyclase α1: A New Approach to Treating Prostate Cancer” (PLoS ONE, 2013)
Entries after “also recorded” stand apart in the source; their conditions may differ. Where no end group is shown, it is not given here.

Key:
[1] = tested on: LNCaP cells; assay: Proliferation of LNCaP cells without or with R1881 (MTT); assay type: cell-based; details: 2% serum without or with 1 nM R1881; 50 µM peptide; day 6; Fig. 3A; averages of three independent experiments; P<0.03 vs Vehicle
Procedure: (§1) For proliferation, cells were grown in medium containing 2% FBS extracted with dextran-coated charcoal (DCC). 48 hours later, ethanol or 1 nM R1881 was added to the cells followed by peptide treatment. The MTT assay (Sigma) was used as before to determine cell number. For apoptosis, 5000 cells were seeded in 96-well plates and treated with Vehicle (DMSO), Peptide A-8R (25 µM), Etoposide (50 µM) (Sigma) at different time points. The Caspase (3/7) activity was measured using Apo-ONE Homogeneous Caspase-3/7 assay kit (Promega). PARP cleavage was also used to measure apoptosis, and is described below.
Vehicle or different concentrations of Peptide A-8R or C-8R, as shown, was added to (A) hormone-dependent LNCaP cells grown in 2% serum without or with 1 nM R1881, (C) castration-resistant C81 or CWR-22Rv1 cells, or (E) sGCα1-deficient PC-3 or Cos cells. Cell number was measured after various days of incubation. Data points represent averages of three independent experiments plus standard deviations. Asterisks indicate statistical significance (P<0.03) of Peptide A activity, relative to Vehicle. Western blotting was used to monitor expression of endogenous sGCα1 in (B) C81 and CWR-22Rv1 cells, treated without or with 1 nM R1881, or (E) PC-3 and Cos cells, as compared to LNCaP cells. Note that β-actin was used to control for protein loading.

[2] = tested on: sGC; assay: cGMP levels in LNCaP cells (ELISA); assay type: cell-based; details: 1 nM R1881 absent or present, 20 µM peptide, cGMP EIA kit, Fig. S1B
Procedure: (A) Whole-cell extracts from LNCaP cells treated with Vehicle, Peptide A-8R, or C-8R were subjected to IP using an anti-sGCα1 or anti-sGCβ1 antibody and then probed by Western blotting for sGCα1 (Upper) or sGCβ1 (Lower). Input represents amount of sGCα1 or sGCβ1 found in extracts. (B) LNCaP cells grown in the absence or presence of 1 nM R1881 were treated with Vehicle, 20 µM Peptide A-8R, 20 µM C-8R, or 8-Br-cGMP and monitored for cGMP levels using the cGMP E1A kit (Enzo Life Sciences). (C) LNCaP cells grown in the absence or presence of 8-Br-cGMP were treated with Vehicle, Peptide A-8R, or ODQ and monitored for cell density using the MTT assay. (D) LNCaP cells were treated with Vehicle or different concentrations of Peptide A-8R and C-PTIO and monitored for cell density. Bar graphs represent averages of three independent experiments plus standard deviations. Asterisks indicate statistical significance (P<0.04). (TIF) Click here for additional data file.

[3] = tested on: C81 cells; assay: NAC rescue of proliferation of Peptide A-8R-treated cells (MTT); assay type: cell-based; details: 50 µM vs 10 and 25 µM
Procedure: as §1
Intracellular ROS levels were evaluated using the fluorescent probe 5-(and-6)-chloromethyl-2′,7′-dichlorodihydrofluorescein diacetate (CM-H2DCFDA) (Invitrogen). After treatments with Peptide A-8R, C81 cells were loaded with 20 µM CM-H2DCFDA and incubated at 37°C for 30 min in the dark. Cells were then washed with PBS and fluorescence was measured at the excitation and emission wavelengths of 490 and 535 nm, respectively, using a multi-well fluorescence plate reader. For NAC (N-acetyl cysteine) (Sigma) rescue experiment, cells were pretreated with 1 or 5 mM NAC for 2 hours before adding Peptide A-8R.
Figure 4 Peptide A-8R kills prostate cancer cells by mediating ROS generation. (A) C81 cells were treated with Vehicle or different µMolar concentrations of Peptide A-8R and without or with 0–5 mM NAC and monitored for ROS generation after 0–30 min as measured by fluorescence intensity (FI). Bar graphs represent averages of three independent experiments plus standard deviations. Note that asterisks on bar graphs found with NAC are compared to equivalent data without NAC. (B) C81 cells were treated with Vehicle or different concentrations of Peptide A-8R, as shown, and 0–5 mM NAC, as shown, and monitored for cell number after 0–6 days of incubation as measured by MTT assay. Data points represent averages of three independent experiments plus standard deviations. Asterisks indicate statistical significance (P<0.04). (C) C81 cells were treated with Vehicle or different concentrations of Peptide A-8R, as shown, and with or without 5 mM NAC, as shown, and monitored DNA damage after 1 hr incubation as measured by Comet assay.

[4] = tested on: C81 xenograft tumors; assay: C81 mouse xenograft tumor study; assay type: in vivo
Procedure: 2×10^6 C81 cells in 50 µL of growth medium was mixed with 50 µL Matrigel (BD Biosciences) and injected into both flanks of 4–6-week old SCID male mice. When tumor sizes reached 200 mm^3, 50 µL of Peptide A-8R (40 mg Peptide A-8R/Kg of animal) or Vehicle (DMSO) was directly injected into the tumors every other day. Injections were stopped after 5 times and tumors were measured every 3 days. Mice were euthanized after 3 weeks and tumors were excised. All procedures were approved by the University of Toledo Division of Lab Animal Recourses (DLAR). Protein extracts were prepared by boiling the tumor tissue in 3× SDS buffer, and evaluated by SDS-PAGE gel.
This study was carried out in strict accordance with the recommendations in the Guide for the Care and Use of Laboratory Animals of the National Institutes of Health. The protocol was approved by the Institutional Animal Care and Use Committee of the University of Toledo (Protocol Number: 106418). During the experiments all animals were monitored daily for morbidity and all efforts were made to minimize suffering. At the end of the study all animals were euthanized using inhalation of carbon dioxide, after which surgery was performed to excise tumors from all animals.
(A) Mouse xenograft tumors derived from C81 cells were treated with Vehicle or Peptide A-8R, after which they were allowed to grow for an additional three weeks without treatment. Data points represent average tumor size of three animals for each treatment plus standard deviations. Note that there is a statistical difference (P<0.00004) in average tumor size for each day of tumor measurement. Arrow represents day of last injection of Vehicle or Peptide A-8R. […] Bar graphs represent averages of each set of three tumors plus standard deviations. Asterisks indicate statistical significance (P<0.02). (C) Two tumors, one on each flank of the same animal, were treated with either Vehicle or Peptide A-8R.

Ac-TFCKAFPFHIIRRRRRRRR [Peptide A-8R]
cytotoxic activity with or without androgen, LNCaP [1]: same potent cytotoxic activity with or without androgen, causing all cells to perish by day 6 when treated with 50 µM peptide | cGMP levels [2]: unable to significantly repress cGMP levels, in either the absence or presence of androgen; also recorded: does not interfere with sGCα1-sGCβ1 dimerization and androgen-induced cGMP synthesis | cytotoxicity at 50 µM relative to lower concentrations [3]: strongest cytotoxic activity | tumor growth during five injections, C81 xenograft ([4]; 40 mg/Kg intratumoral, every other day, 5 times, Fig. 6A, 6B, three animals per treatment, P<0.00004): stopped tumor growth and actually caused some tumor regression during the five injections of peptide | anti-tumor activity, C81 xenograft (summary) ([4]; intra-tumoral injection): able to stop tumor growth; also recorded: blocks the growth of castration-resistant prostate tumors; also recorded: strong anti-cancer activity | tumor growth three weeks after treatment stopped, C81 xenograft ([4]; three weeks after last injection, Vehicle tumors grew more than three-fold, Fig. 6A): did not grow at all three weeks after Peptide treatment was stopped | tumor size in same animal, Peptide- vs Vehicle-treated flank ([4]; two tumors, one per flank of same mouse, Fig. 6C): markedly smaller than the Vehicle-treated tumor
